The values that follow come from the supplement of paper PMC12463676, “Small-molecule dissolution of stress granules by redox modulation benefits ALS models” (Nature Chemical Biology, 2025).

Compound in one test: NC(=O)CCCCC1CCSS1 [lipoamide]
The experiment in a line: thermal stability z-score vs DMSO; higher = more thermally stabilized by treatment. The settings on record: HeLa, lipoamide concentration 100 µM. The method, then: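 Cellular thermal proteome profiling in HeLa cells. Cells were treated with 100 µM lipoamide for 1 h, with or without 1 mM arsenate for a further 1 h, then heated to ten temperatures (37-66.3 °C), and soluble protein was quantified by TMT mass spectrometry relative to 0.1% DMSO controls. The thermal stability score (sum of log2 fold changes minus the abundance score) was transformed to a z-score; mean of n = 3 experiments.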

Compound in the next test: O=[As]([O-])(O)O.[K+] [potassium arsenate]
The description is as above. The settings on record: HeLa; arsenate concentration 1 mM. Here is the method:
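Cellular thermal proteome profiling in HeLa cells treated with 1 mM arsenate for 1 h (DMSO pretreatment), heated to ten temperatures (37-66.3 °C). Soluble protein was quantified by TMT mass spectrometry relative to DMSO controls; the thermal stability score was transformed to a z-score; mean of n = 3 experiments.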

[1] abbreviates: arsenate co-treatment: 1 mM arsenate 1 h.
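Note: each temperature applied for 3 min, abundance score taken as mean log2 fold change at the two lowest temperatures, z-score obtained by mean subtraction and division by SD.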

Chain of UniProt Q7L273 (Q7L273 whole entry): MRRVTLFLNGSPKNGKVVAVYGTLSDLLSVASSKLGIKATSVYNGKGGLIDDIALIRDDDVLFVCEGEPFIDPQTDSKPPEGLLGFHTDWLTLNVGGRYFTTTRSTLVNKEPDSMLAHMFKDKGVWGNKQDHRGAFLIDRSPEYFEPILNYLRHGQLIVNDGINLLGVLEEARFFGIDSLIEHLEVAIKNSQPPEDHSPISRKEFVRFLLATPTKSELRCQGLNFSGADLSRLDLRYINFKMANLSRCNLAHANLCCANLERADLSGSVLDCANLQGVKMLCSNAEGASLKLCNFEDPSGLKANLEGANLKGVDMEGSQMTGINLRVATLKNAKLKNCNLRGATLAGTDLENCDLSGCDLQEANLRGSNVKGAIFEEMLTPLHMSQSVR
Chain of UniProt P13798 (P13798 whole entry): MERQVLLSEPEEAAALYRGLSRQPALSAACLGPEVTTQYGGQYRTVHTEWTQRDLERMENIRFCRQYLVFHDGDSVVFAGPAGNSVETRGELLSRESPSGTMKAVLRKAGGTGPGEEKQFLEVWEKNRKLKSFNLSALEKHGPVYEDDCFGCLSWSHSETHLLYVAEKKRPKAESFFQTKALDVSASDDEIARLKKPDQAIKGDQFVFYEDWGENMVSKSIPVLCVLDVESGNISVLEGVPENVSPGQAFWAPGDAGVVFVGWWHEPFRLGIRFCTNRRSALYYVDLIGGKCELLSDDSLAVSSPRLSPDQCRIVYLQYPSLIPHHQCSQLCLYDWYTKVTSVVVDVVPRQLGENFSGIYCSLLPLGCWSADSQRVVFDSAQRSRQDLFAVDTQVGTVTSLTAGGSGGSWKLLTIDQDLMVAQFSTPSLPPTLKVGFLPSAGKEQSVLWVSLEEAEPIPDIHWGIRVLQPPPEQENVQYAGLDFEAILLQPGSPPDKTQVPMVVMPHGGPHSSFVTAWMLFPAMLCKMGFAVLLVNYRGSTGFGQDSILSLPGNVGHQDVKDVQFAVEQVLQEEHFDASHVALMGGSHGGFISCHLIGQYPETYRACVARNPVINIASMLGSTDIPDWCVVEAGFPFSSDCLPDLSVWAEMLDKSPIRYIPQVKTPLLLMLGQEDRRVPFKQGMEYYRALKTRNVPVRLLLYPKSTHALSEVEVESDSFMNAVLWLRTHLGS
Chain of UniProt A0PJW6 (A0PJW6 whole entry): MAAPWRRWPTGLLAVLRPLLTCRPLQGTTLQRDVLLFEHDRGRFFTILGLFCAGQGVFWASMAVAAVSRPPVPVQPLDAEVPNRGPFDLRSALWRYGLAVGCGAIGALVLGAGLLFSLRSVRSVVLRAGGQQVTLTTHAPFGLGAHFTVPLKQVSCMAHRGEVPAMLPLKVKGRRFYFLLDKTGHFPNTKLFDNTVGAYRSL
Chain of UniProt Q8IWZ8 (Q8IWZ8 whole entry): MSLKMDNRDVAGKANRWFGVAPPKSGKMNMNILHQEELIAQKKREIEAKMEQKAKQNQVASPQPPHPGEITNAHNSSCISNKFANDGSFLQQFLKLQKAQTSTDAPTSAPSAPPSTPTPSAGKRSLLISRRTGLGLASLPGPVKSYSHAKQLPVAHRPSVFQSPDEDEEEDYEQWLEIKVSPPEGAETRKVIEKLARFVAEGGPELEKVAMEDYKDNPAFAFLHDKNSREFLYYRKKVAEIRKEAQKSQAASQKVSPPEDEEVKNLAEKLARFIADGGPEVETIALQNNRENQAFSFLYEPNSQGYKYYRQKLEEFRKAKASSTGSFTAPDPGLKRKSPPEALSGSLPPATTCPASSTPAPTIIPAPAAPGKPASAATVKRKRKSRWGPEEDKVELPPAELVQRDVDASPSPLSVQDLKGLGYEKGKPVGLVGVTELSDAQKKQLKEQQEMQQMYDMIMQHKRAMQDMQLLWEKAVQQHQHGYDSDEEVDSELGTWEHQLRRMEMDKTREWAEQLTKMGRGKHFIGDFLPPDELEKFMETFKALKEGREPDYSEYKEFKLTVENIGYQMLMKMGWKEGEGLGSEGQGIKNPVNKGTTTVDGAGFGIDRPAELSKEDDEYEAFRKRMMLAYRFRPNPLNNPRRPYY
Chain of UniProt Q9BRS2 (Q9BRS2 whole entry): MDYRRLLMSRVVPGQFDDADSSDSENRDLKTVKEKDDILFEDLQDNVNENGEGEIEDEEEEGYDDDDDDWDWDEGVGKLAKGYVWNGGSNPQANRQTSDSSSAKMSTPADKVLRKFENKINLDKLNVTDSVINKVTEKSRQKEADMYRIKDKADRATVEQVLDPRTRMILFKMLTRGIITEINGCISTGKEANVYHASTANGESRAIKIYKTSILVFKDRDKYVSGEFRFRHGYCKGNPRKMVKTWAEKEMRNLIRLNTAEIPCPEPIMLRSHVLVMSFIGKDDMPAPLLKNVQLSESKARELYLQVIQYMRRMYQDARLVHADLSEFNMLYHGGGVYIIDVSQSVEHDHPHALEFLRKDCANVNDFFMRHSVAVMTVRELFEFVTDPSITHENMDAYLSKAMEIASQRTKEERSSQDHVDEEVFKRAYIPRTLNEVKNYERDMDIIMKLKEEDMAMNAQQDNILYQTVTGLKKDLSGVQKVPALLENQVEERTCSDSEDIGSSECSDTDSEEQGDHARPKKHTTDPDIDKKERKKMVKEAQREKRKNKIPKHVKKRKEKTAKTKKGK
Chain of UniProt Q9P2E5 (Q9P2E5 whole entry): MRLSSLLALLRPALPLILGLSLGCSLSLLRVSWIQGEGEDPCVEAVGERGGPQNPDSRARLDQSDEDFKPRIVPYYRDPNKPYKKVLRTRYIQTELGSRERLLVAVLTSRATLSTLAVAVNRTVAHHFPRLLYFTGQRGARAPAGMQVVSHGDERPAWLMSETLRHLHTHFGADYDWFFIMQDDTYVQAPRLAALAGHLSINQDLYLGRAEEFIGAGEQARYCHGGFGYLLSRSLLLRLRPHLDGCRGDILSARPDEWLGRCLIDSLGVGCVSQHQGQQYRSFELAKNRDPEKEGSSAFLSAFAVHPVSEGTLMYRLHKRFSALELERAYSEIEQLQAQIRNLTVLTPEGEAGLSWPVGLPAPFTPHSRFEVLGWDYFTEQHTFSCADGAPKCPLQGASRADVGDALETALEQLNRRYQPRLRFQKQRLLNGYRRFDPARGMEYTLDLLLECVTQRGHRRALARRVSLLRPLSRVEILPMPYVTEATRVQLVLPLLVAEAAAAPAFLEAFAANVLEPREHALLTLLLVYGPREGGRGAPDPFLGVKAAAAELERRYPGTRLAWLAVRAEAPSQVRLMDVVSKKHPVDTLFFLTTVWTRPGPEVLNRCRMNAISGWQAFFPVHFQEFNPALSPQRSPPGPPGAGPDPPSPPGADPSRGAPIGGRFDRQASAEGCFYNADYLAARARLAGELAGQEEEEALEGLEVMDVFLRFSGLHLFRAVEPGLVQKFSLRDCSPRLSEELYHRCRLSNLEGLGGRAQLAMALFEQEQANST
Chain of UniProt O43237 (O43237 whole entry): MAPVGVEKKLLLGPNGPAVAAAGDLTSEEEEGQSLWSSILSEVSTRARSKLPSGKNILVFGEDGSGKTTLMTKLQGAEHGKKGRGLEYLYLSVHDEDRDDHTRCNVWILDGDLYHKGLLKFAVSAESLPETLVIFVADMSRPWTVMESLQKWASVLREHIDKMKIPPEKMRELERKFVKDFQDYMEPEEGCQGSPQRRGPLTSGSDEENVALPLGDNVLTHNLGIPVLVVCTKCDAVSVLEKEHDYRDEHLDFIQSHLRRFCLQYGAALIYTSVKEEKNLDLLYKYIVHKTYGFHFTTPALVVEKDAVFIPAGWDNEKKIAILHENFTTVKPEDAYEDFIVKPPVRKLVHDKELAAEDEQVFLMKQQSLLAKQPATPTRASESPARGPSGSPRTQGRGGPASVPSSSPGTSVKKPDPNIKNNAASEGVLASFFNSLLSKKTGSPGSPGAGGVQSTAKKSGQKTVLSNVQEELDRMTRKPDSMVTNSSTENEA
Chain of UniProt O14519 (O14519 whole entry): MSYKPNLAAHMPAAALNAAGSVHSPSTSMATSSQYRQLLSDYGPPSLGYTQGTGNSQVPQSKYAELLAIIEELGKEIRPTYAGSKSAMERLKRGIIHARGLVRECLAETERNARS
Chain of UniProt Q8NBF2 (Q8NBF2 whole entry): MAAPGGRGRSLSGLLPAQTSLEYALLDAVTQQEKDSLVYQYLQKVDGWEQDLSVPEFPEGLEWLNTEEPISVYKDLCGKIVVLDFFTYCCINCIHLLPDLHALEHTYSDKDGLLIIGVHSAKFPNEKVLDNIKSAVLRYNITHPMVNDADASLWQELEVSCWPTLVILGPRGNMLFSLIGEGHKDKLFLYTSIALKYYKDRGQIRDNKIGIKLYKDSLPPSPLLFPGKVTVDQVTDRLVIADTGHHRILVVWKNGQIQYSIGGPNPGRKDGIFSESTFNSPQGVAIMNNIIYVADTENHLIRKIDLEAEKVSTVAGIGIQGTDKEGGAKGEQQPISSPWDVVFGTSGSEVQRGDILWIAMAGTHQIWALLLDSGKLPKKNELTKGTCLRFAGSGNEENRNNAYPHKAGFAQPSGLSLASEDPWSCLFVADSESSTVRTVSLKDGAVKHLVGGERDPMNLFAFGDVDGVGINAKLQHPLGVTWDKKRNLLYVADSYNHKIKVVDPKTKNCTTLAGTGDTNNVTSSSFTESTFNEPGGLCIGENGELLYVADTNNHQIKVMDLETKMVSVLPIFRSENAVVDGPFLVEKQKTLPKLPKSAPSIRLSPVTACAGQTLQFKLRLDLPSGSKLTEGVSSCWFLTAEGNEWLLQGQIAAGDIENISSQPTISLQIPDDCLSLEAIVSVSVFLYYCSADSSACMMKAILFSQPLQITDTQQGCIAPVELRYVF
Chain of UniProt Q86W42 (Q86W42 whole entry): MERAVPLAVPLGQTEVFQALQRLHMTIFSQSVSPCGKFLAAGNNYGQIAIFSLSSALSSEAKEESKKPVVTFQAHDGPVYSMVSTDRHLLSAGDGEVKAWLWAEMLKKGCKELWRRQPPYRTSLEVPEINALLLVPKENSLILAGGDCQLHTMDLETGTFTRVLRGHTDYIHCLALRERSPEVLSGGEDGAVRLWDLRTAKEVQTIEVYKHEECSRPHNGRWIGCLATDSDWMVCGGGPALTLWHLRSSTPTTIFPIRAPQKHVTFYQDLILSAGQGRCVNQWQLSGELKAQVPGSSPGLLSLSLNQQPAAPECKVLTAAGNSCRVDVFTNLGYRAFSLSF

With THOC6 (UniProt Q86W42), the thermal stability z-score in the test with lipoamide (setting [1]) came to 0.337; with lipoamide (arsenate co-treatment: none), 0.402; with potassium arsenate it was 0.429.

For the target SLC25A12 (UniProt O75746), the thermal stability z-score in the test with lipoamide (setting [1]) is -0.149; in the test with lipoamide (arsenate co-treatment: none) it was -0.154; in the test with potassium arsenate, -0.0761.

Turning to NHLRC2 (UniProt Q8NBF2), the thermal stability z-score in the test with lipoamide (setting [1]) is -0.233; in the test with lipoamide (arsenate co-treatment: none), 0.152; with potassium arsenate, -2.19.

Take CHPF2 (UniProt Q9P2E5): the thermal stability z-score with lipoamide (setting [1]) was -0.824; with lipoamide (arsenate co-treatment: none), -0.516; with potassium arsenate it was -0.154.

Take CDK2AP1 (UniProt O14519): the thermal stability z-score with lipoamide (setting [1]) is -0.0893; with lipoamide (arsenate co-treatment: none), -0.224; with potassium arsenate, -0.113.

Regarding KCTD9 (UniProt Q7L273), the figures for the thermal stability z-score with lipoamide (setting [1]), in the test with lipoamide (arsenate co-treatment: none) and with potassium arsenate were 0.34, 0.375 and -0.315, respectively.

In the case of CDS2 (UniProt O95674), the thermal stability z-score with lipoamide (setting [1]) is -0.807; with lipoamide (arsenate co-treatment: none) it was -0.975; with potassium arsenate it was -0.43.

NAA25 (UniProt Q14CX7): the thermal stability z-score with lipoamide (setting [1]) was 0.177; in the test with lipoamide (arsenate co-treatment: none), 0.0532; in the test with potassium arsenate it was -0.0259.

As to TRUB1 (UniProt Q8WWH5), the thermal stability z-score was -0.102 with lipoamide (setting [1]), 0.175 in the test with lipoamide (arsenate co-treatment: none) and 0.231 with potassium arsenate.

As for PLS1 (UniProt Q14651), the thermal stability z-score is 0.258 with lipoamide (setting [1]), 0.506 with lipoamide (arsenate co-treatment: none) and -0.0678 with potassium arsenate.

As for PCBP2 (UniProt Q15366), the thermal stability z-score with lipoamide (setting [1]) was -0.426; in the test with lipoamide (arsenate co-treatment: none), -0.239; in the test with potassium arsenate, 0.141.

With SLC44A1 (UniProt Q8WWI5), the thermal stability z-score was 0.347 with lipoamide (setting [1]), -0.0965 in the test with lipoamide (arsenate co-treatment: none) and -0.452 in the test with potassium arsenate.

PXN (UniProt P49023): the thermal stability z-score with lipoamide (setting [1]) is -0.261; with lipoamide (arsenate co-treatment: none), -0.432; with potassium arsenate, -2.

POLE (UniProt Q07864): the values for the thermal stability z-score in the test with lipoamide (setting [1]), with lipoamide (arsenate co-treatment: none) and with potassium arsenate were -0.0751, -0.113 and -0.553, respectively.

On to SUGP1 (UniProt Q8IWZ8), for which the thermal stability z-score was 0.164 in the test with lipoamide (setting [1]), -0.049 with lipoamide (arsenate co-treatment: none) and 0.928 with potassium arsenate.

In the case of C1ORF131 (UniProt Q8NDD1), the thermal stability z-score with lipoamide (setting [1]) was 1.04; with lipoamide (arsenate co-treatment: none), -0.388; in the test with potassium arsenate, -0.733.

On to BAX (UniProt Q07812), for which the thermal stability z-score with lipoamide (setting [1]) stood at 0.343; with lipoamide (arsenate co-treatment: none) it was 1.42; in the test with potassium arsenate, 1.46.

NDUFS7 (UniProt O75251): the thermal stability z-score in the test with lipoamide (setting [1]) was 0.142; with lipoamide (arsenate co-treatment: none) it was 0.157; with potassium arsenate, 0.149.

As to ALKBH5 (UniProt Q6P6C2), the thermal stability z-score is 1.79 in the test with lipoamide (setting [1]), -0.205 with lipoamide (arsenate co-treatment: none) and 2.96 in the test with potassium arsenate.

As to DSN1 (UniProt Q9H410), the thermal stability z-score in the test with lipoamide (setting [1]) was 0.0417; with lipoamide (arsenate co-treatment: none), -0.0069; with potassium arsenate, 0.127.

With DYNC1LI2 (UniProt O43237), the thermal stability z-score in the test with lipoamide (setting [1]) is -0.543; with lipoamide (arsenate co-treatment: none), -0.166; with potassium arsenate, 0.192.

Take ASF1A (UniProt Q9Y294): the thermal stability z-score with lipoamide (setting [1]) is -0.132; with lipoamide (arsenate co-treatment: none) it was -0.202; in the test with potassium arsenate it was -0.103.

In the case of CRAT (UniProt P43155), the values for the thermal stability z-score with lipoamide (setting [1]), in the test with lipoamide (arsenate co-treatment: none) and in the test with potassium arsenate were 0.0164, 0.114 and 0.0734, respectively.

Turning to RIOK1 (UniProt Q9BRS2), the values for the thermal stability z-score in the test with lipoamide (setting [1]), in the test with lipoamide (arsenate co-treatment: none) and in the test with potassium arsenate were -0.529, -0.513 and -1.27, respectively.

With TUBB3 (UniProt Q13509), the results for the thermal stability z-score with lipoamide (setting [1]), in the test with lipoamide (arsenate co-treatment: none) and with potassium arsenate were 0.871, 0.131 and -0.447, respectively.

For HGH1 (UniProt Q9BTY7), the thermal stability z-score was 0.403 in the test with lipoamide (setting [1]), 0.226 with lipoamide (arsenate co-treatment: none) and 0.787 with potassium arsenate.

Regarding ERBB2 (UniProt P04626), the thermal stability z-score with lipoamide (setting [1]) was found to be 0.166; with lipoamide (arsenate co-treatment: none), 0.0799; with potassium arsenate, 0.0442.

For the target APEH (UniProt P13798), the results for the thermal stability z-score with lipoamide (setting [1]), in the test with lipoamide (arsenate co-treatment: none) and in the test with potassium arsenate were 0.391, 0.223 and 0.225, respectively.

As for NDUFAB1 (UniProt O14561), the values for the thermal stability z-score with lipoamide (setting [1]), in the test with lipoamide (arsenate co-treatment: none) and with potassium arsenate were 1.77, -0.297 and 0.86, respectively.

As for METTL7A (UniProt Q9H8H3), the thermal stability z-score amounted to 2.84 with lipoamide (setting [1]), 2.54 with lipoamide (arsenate co-treatment: none) and 0.632 with potassium arsenate.

On to SRSF9 (UniProt Q13242), for which the thermal stability z-score with lipoamide (setting [1]) was determined as 2.14; in the test with lipoamide (arsenate co-treatment: none) it was 0.947; with potassium arsenate it was 0.0934.

For SCAP (UniProt Q12770), the thermal stability z-score with lipoamide (setting [1]) was -1.13; with lipoamide (arsenate co-treatment: none), 0.0662; with potassium arsenate, -0.473.

With SLC16A1 (UniProt P53985), the thermal stability z-score with lipoamide (setting [1]) turned out to be 0.774; with lipoamide (arsenate co-treatment: none), 1.02; with potassium arsenate it was 0.385.

Consider CYR61 (UniProt O00622), for which the thermal stability z-score was -1.72 with lipoamide (setting [1]), -1.47 in the test with lipoamide (arsenate co-treatment: none) and -4.51 with potassium arsenate.

On to AZIN1 (UniProt O14977), for which the thermal stability z-score in the test with lipoamide (setting [1]) was determined as 0.745; in the test with lipoamide (arsenate co-treatment: none), 0.806; with potassium arsenate, 0.62.

For TRMU (UniProt O75648), the thermal stability z-score in the test with lipoamide (setting [1]) was -0.59; in the test with lipoamide (arsenate co-treatment: none), -0.509; with potassium arsenate it was -0.558.

For the target ARFIP1 (UniProt P53367), the thermal stability z-score in the test with lipoamide (setting [1]) was found to be 0.444; with lipoamide (arsenate co-treatment: none), 0.144; in the test with potassium arsenate, 0.0115.

With KIFC1 (UniProt Q9BW19), the thermal stability z-score is 0.126 with lipoamide (setting [1]), 0.0537 with lipoamide (arsenate co-treatment: none) and -0.106 with potassium arsenate.

Regarding TMEM223 (UniProt A0PJW6), the thermal stability z-score was -0.653 with lipoamide (setting [1]), 0.466 with lipoamide (arsenate co-treatment: none) and 1.09 with potassium arsenate.

SFR1 (UniProt Q86XK3): the thermal stability z-score is -0.12 in the test with lipoamide (setting [1]), -0.359 in the test with lipoamide (arsenate co-treatment: none) and 0.036 with potassium arsenate.

With MCAM (UniProt P43121), the thermal stability z-score with lipoamide (setting [1]) is 0.197; with lipoamide (arsenate co-treatment: none), -0.281; with potassium arsenate, 0.512.

As to STK24 (UniProt Q9Y6E0), the figures for the thermal stability z-score with lipoamide (setting [1]), in the test with lipoamide (arsenate co-treatment: none) and with potassium arsenate were 0.0491, -0.118 and 0.0137, respectively.
